Source: paper PMC3578047 (European journal of pharmacology, 2012)
Counter-ions that a name gives are not always drawn.

Key:
[1] = tested on: naive rats; assay: von Frey assay in the absence of a pain state; type: in vivo, rat; conditions: for mechanical withdrawal thresholds in naive rats: 3 mg/kg
[2] = tested on: naive rats; assay: rotorod motor skill test; conditions: 3 mg/kg
[3] = tested on: streptozocin induced type I diabetic neuropathic pain (mechanical allodynia); type: in vivo, rat; conditions: for anti-allodynic effect over the time course versus vehicle: 15 min to 6 h; for effect on neuropathic allodynia versus vehicle: 10 mg/kg s.c., over 6 h time course
[4] = plasma pharmacokinetics in rat; type: in vivo; conditions: low dose, mean plasma AUC (S2)
[5] = tested on: human sEH; conditions: read-out: IC50 Human, fluorescent assay, ref Hwang 2007; cited from earlier work
[6] = cynomolgus monkey; ref Ulu et al., 2011; cited from earlier work
[7] = experimental logP; conditions: determined experimentally as described by Tsai et al. 2010
[8] = tested on: lipopolysaccharide induced inflammatory pain (mechanical allodynia); type: in vivo, rat; conditions: for effect on lipopolysaccharide induced allodynia over the dose range: s.c. 60 min prior to lipopolysaccharide, at 2 h
[9] = tested on: plasma epoxyeicosatrienoic acids, dihydroxyeicosatrienoic acids, PGE2 and PGD2; assay: plasma oxylipin analysis in the inflammatory pain model; type: in vivo, rat; conditions: 2 h post lipopolysaccharide
[10] = ref Liu et al., 2009; cited from earlier work
[11] = ref Liu 2009; cited from earlier work
[12] = 3 mg/kg s.c. 60 min prior to lipopolysaccharide

With CN1CC[C@]23c4c5ccc(O)c4O[C@H]2[C@@H](O)C=C[C@H]3[C@H]1C5 [morphine, Morphine sulfate, reference compound] the “mechanical withdrawal thresholds in naive rats” value [1] was “significant increase in mechanical withdrawal thresholds” and the “rotorod performance versus vehicle controls” value [2] was “no significant effect on rotorod performance”.
With O=C(Nc1cccc(OC(F)(F)F)c1)N[C@H]1CC[C@H](Oc2ccc(C(=O)O)cc2)CC1 [t-TUCB, trans-4-[4-(3-trifluoromethoxyphenyl-l-ureido)-cyclohexyloxy]-benzoic acid] the “anti-allodynic effect over the time course versus vehicle” value ([3]; 3 mg/kg s.c., diabetic rats) was “significantly effective versus vehicle control over the time course but was delayed and less active when compared to APAU”, the mechanical withdrawal thresholds ([3]; 10 mg/kg, diabetic rats, early time points (Fig. S1, Table S3)) was “increased mechanical withdrawal thresholds to pre-diabetic pain free scores at early time points” and the “dose of maximal response, the only significant dose” value ([3]; s.c., dose range 0.1-100 mg/kg, at 3 h) was 10 mg/kg. For the same molecule, the “overall pharmacokinetics in rats” value [4] was “best overall pharmacokinetics at low dose”, the IC50 [5] was 0.9 nM and the plasma protein binding [6] was 99%. For the same molecule, the eLogP [7] was 1.6.
For Cc1ccc(-c2cc(C(F)(F)F)nn2-c2ccc(S(N)(=O)=O)cc2)cc1 [celecoxib, reference compound], the “effect on neuropathic allodynia versus vehicle” value ([3]; diabetic rats) was “no significant effect on the neuropathic allodynia” and the “effect on lipopolysaccharide induced allodynia” value ([8]; 10 mg/kg, 1 h prior to intraplantar lipopolysaccharide, over 6 h time course) was “marginal effect at the 3 hour time point”.
In the case of CC(=O)N1CCC(NC(=O)NC23CC4CC(CC(C4)C2)C3)CC1 [APAU, 1-(1-acetypiperidin-4-yl)-3-adamantanylurea], the duration of anti-nociception ([3]; 3 mg/kg s.c., diabetic rats) is reported as “up to 5 h”, the “time of first anti-allodynic effect” value ([3]; 3 mg/kg s.c., diabetic rats) is reported as 15 min and the “anti-allodynic effect over the time course versus vehicle” value ([3]; 3 mg/kg s.c., diabetic rats) is reported as “blocked allodynia by the first measurement at 15 minutes”. For the same molecule, the “effect on neuropathic allodynia versus vehicle” value ([3]; diabetic rats) was “significantly decreased allodynia”, the “most effective dose against allodynia” value ([3]; s.c., dose range 0.1-100 mg/kg, at 2 h) was 3 mg/kg and the “effect of oral gavage dose compared to s.c. dose” value ([8]; 3 mg/kg oral gavage in PEG400, 1 h prior to lipopolysaccharide) was “equaled the maximal effect of the s.c. dose”. For the same molecule, the “earliest time point at which pain was blocked” value [8, 12] was 15 min, the “effect over the time course versus vehicle control” value [8, 12] was “significant versus vehicle control over the time course” and the “effect on lipopolysaccharide induced allodynia over the dose range” value [8] was “All doses of APAU except 0.1 mg/kg significantly blocked the lipopolysaccharide induced allodynia”. For the same molecule, the “mechanical withdrawal thresholds in naive rats” value [1] was “showed no effect in the assay”, the “nociceptive thresholds in absence of pain state versus vehicle” value ([1]; 100 mg/kg) was “did not significantly alter the nociceptive thresholds” and the “plasma PGE2 and PGD2 versus lipopolysaccharide + vehicle” value ([9]; 3 mg/kg) was “reduced both prostaglandins significantly”. For the same molecule, the “plasma PGE2 and PGD2 versus lipopolysaccharide + vehicle” value ([9]; 100 mg/kg) was “did not significantly decrease PGE2 and PGD2 levels”, the “sum dihydroxyeicosatrienoic acids in plasma versus vehicle controls” value ([9]; 3 and 100 mg/kg) was “significantly lowered dihydroxyeicosatrienoic acids” and the “sum epoxyeicosatrienoic acids in plasma versus vehicle controls” value ([9]; 3 and 100 mg/kg) was “did not significantly alter sum epoxyeicosatrienoic acids levels”. The plasma half-life [10] was “relatively short plasma half-life”, the “Water Solubility” value [11] was 310 ±60 mg/L^b and the plasma protein binding [6] was 35.5%.
In the case of O=C(NC12CC3CC(CC(C3)C1)C2)N[C@H]1CC[C@H](Oc2ccc(C(=O)O)cc2)CC1 [t-AUCB, trans-4-[4-(3-adamantan-1-yl-ureido)-cyclohexyloxy]-benzoic acid], the “anti-allodynic effect over the time course versus vehicle” value ([3]; 3 mg/kg s.c., diabetic rats) is reported as “significant versus vehicle control over the time course but overall the effect was brief”, the “only dose with significant anti-allodynic effect” value ([3]; s.c., dose range 1-100 mg/kg, at 2 h) is reported as 100 mg/kg and the “effect over the time course versus vehicle control” value [8, 12] is reported as “lacked a significance versus vehicle control over the time course”. The “effect on lipopolysaccharide induced allodynia over the dose range” value [8] was “significantly blocked pain related behavior only at the two highest doses 30 and 100 mg/kg” and the IC50 [5] was […].
